Test system: ALP in NHAC (normal human articular chondrocytes)
Assay: Alkaline Phosphatase (ALP) activity assay: ALP staining and quantitation in NHACs (prevention of chondrocyte hypertrophy)
Assay type: cell-based
Conditions: Chondrocyte, 288 h, human IL-1 beta 10 ng/mL, 12 days; for IC50: Fast Blue RR staining, high content imaging; for Emax: read-out: ALP in NHAC (% Efficacy)
In short: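 NHACs were plated with test compound in DMEM containing 10% FBS, and human IL-1 beta was added 5 h later at 10 ng/mL final. Cultures were kept 12 days at 37° C, 5% CO2. Cells were then fixed, ALP-stained with Fast Blue RR/Naphthol AS-MX, and hypertrophic cells were imaged and quantified by high-content imaging.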

| SMILES | IC50 [µM] | Emax [%] |
| --- | --- | --- |
| Cn1cc([C@@]23C[C@]2(C(=O)Nc2cc(Cl)cc(C(F)(F)F)c2)[C@H]2C[C@H](O)[C@@H]3O2)c(C(F)(F)F)n1 (racemic) [Example 59, rac-(1R,2R,4S,5R,6S)-N-(3-chloro-5-(trifluoromethyl)phenyl)-6-hydroxy-4-(1-methyl-3-(trifluoromethyl)-1H-pyrazol-4-yl)-8-oxatricyclo[3.2.1.02,4]octane-2-carboxamide] | > 30 | 35 |
| COc1ccc(NC(=O)[C@]23C[C@@]2(c2cn(C)nc2C(F)(F)F)[C@H]2O[C@@H]3C[C@@H]2O)cc1C(F)(F)F (racemic) [Example 60, rac-(1R,2R,4S,5R,6S)-6-hydroxy-N-(4-methoxy-3-(trifluoromethyl)phenyl)-4-(1-methyl-3-(trifluoromethyl)-1H-pyrazol-4-yl)-8-oxatricyclo[3.2.1.02,4]octane-2-carboxamide] | > 30 | 27 |
| COc1cc(NC(=O)[C@]23C[C@@]2(c2cn(C)nc2C(F)(F)F)[C@H]2O[C@@H]3C[C@@H]2O)cc(C(F)(F)F)c1 (racemic) [Example 61, rac-(1R,2R,4S,5R,6S)-6-hydroxy-N-(3-methoxy-5-(trifluoromethyl)phenyl)-4-(1-methyl-3-(trifluoromethyl)-1H-pyrazol-4-yl)-8-oxatricyclo[3.2.1.02,4]octane-2-carboxamide] | > 30 | 29 |
| COc1ccc(C(F)(F)F)cc1NC(=O)[C@]12C[C@@]1(c1cn(C)nc1C(F)(F)F)[C@H]1O[C@@H]2C[C@@H]1O (racemic) [Example 62, rac-(1R,2R,4S,5R,6S)-6-hydroxy-N-(2-methoxy-5-(trifluoromethyl)phenyl)-4-(1-methyl-3-(trifluoromethyl)-1H-pyrazol-4-yl)-8-oxatricyclo[3.2.1.02,4]octane-2-carboxamide] | > 30 | 26 |
| Cn1cc([C@@]23C[C@]2(C(=O)Nc2cc(C(F)(F)F)cc(C(F)(F)F)c2)[C@H]2C[C@H](O)[C@@H]3O2)c(C(F)(F)F)n1 (racemic) [Example 63, rac-(1R,2R,4S,5R,6S)—N-(3,5-bis(trifluoromethyl)phenyl)-6-hydroxy-4-(1-methyl-3-(trifluoromethyl)-1H-pyrazol-4-yl)-8-oxatricyclo[3.2.1.02,4]octane-2-carboxamide] | 29 | 56 |
| Cn1cc([C@@]23C[C@]2(C(=O)Nc2ccc(N4CCOCC4)c(C(F)(F)F)c2)[C@H]2C[C@H](O)[C@@H]3O2)c(C(F)(F)F)n1 (racemic) [Example 64, rac-(1R,2R,4S,5R,6S)-6-hydroxy-4-(1-methyl-3-(trifluoromethyl)-1H-pyrazol-4-yl)-N-(4-morpholino-3-(trifluoromethyl)phenyl)-8-oxatricyclo[3.2.1.02,4]octane-2-carboxamide] | > 30 | 28 |
| CCOc1ccc(NC(=O)[C@]23C[C@@]2(c2cn(C)nc2C(F)(F)F)[C@H]2O[C@@H]3C[C@@H]2O)cc1C(F)(F)F (racemic) [Example 65, rac-(1R,2R,4S,5R,6S)—N-(4-ethoxy-3-(trifluoromethyl)phenyl)-6-hydroxy-4-(1-methyl-3-(trifluoromethyl)-1H-pyrazol-4-yl)-8-oxatricyclo[3.2.1.02,4]octane-2-carboxamide] | 12 | 84 |
| O=C(Nc1cccc(C(F)(F)F)c1)[C@]12C[C@@]1(c1ccnc(C(F)(F)F)c1)[C@H]1O[C@@H]2C[C@@H]1O (racemic) [Example 66, rac-(1R,2R,4S,5R,6S)-6-hydroxy-N-(3-(trifluoromethyl)phenyl)-4-(2-(trifluoromethyl)pyridin-4-yl)-8-oxatricyclo[3.2.1.02,4]octane-2-carboxamide] | 24 | 62 |
| O=C(Nc1cccc(C(F)(F)F)c1)[C@]12C[C@@]1(c1cccc(C(F)(F)F)c1)[C@H]1O[C@@H]2C[C@@H]1O (racemic) [Example 67, rac-(1R,2R,4S,5R,6S)-6-hydroxy-N,4-bis(3-(trifluoromethyl)phenyl)-8-oxatricyclo[3.2.1.02,4]octane-2-carboxamide] | 27 | 54 |
| Cn1cc([C@@]23C[C@]2(C(=O)Nc2ccc(C#N)c(C(F)(F)F)c2)[C@H]2C[C@H](O)[C@@H]3O2)c(C(F)(F)F)n1 (racemic) [Example 68, rac-(1R,2R,4S,5R,6S)—N-(4-cyano-3-(trifluoromethyl)phenyl)-6-hydroxy-4-(1-methyl-3-(trifluoromethyl)-1H-pyrazol-4-yl)-8-oxatricyclo[3.2.1.02,4]octane-2-carboxamide] | > 30 | 50 |
| Cn1cc([C@@]23C[C@]2(C(=O)Nc2cc(C(F)(F)F)ccc2C#N)[C@H]2C[C@H](O)[C@@H]3O2)c(C(F)(F)F)n1 (racemic) [Example 69, rac-(1R,2R,4S,5R,6S)—N-(2-cyano-5-(trifluoromethyl)phenyl)-6-hydroxy-4-(1-methyl-3-(trifluoromethyl)-1H-pyrazol-4-yl)-8-oxatricyclo[3.2.1.02,4]octane-2-carboxamide] | 1.8 | 88 |
| COc1cc([C@@]23C[C@]2(C(=O)Nc2ccc(Cl)c(C(F)(F)F)c2)[C@H]2C[C@H](O)[C@@H]3O2)ccn1 (racemic) [Example 70, rac-(1R,2R,4S,5R,6S)—N-(4-chloro-3-(trifluoromethyl)phenyl)-6-hydroxy-4-(2-methoxypyridin-4-yl)-8-oxatricyclo[3.2.1.02,4]octane-2-carboxamide] | > 30 | 39 |
| COc1cc([C@@]23C[C@]2(C(=O)Nc2cc(Cl)cc(C(F)(F)F)c2)[C@H]2C[C@H](O)[C@@H]3O2)ccn1 (racemic) [Example 71, rac-(1R,2R,4S,5R,6S)—N-(3-chloro-5-(trifluoromethyl)phenyl)-6-hydroxy-4-(2-methoxypyridin-4-yl)-8-oxatricyclo[3.2.1.02,4]octane-2-carboxamide] | > 30 | 9 |
| COc1cc([C@@]23C[C@]2(C(=O)Nc2cc(C#N)cc(C(F)(F)F)c2)[C@H]2C[C@H](O)[C@@H]3O2)ccn1 (racemic) [Example 72, rac-(1R,2R,4S,5R,6S)—N-(3-cyano-5-(trifluoromethyl)phenyl)-6-hydroxy-4-(2-methoxypyridin-4-yl)-8-oxatricyclo[3.2.1.02,4]octane-2-carboxamide] | > 30 | 37 |
| COc1cc([C@@]23C[C@]2(C(=O)Nc2cc(F)cc(C(F)(F)F)c2)[C@H]2C[C@H](O)[C@@H]3O2)ccn1 (racemic) [Example 73, rac-(1R,2R,4S,5R,6S)—N-(3-fluoro-5-(trifluoromethyl)phenyl)-6-hydroxy-4-(2-methoxypyridin-4-yl)-8-oxatricyclo[3.2.1.02,4]octane-2-carboxamide] | > 30 | 49 |
| COc1cc([C@@]23C[C@]2(C(=O)Nc2ccc(C(F)(F)F)c(Cl)c2)[C@H]2C[C@H](O)[C@@H]3O2)ccn1 (racemic) [Example 74, rac-(1R,2R,4S,5R,6S)—N-(3-chloro-4-(trifluoromethyl)phenyl)-6-hydroxy-4-(2-methoxypyridin-4-yl)-8-oxatricyclo[3.2.1.02,4]octane-2-carboxamide] | 3.4 | 77 |

Source: patent US12365692B2, “6-hydroxy-8-oxatricyclo[3.2.1.02,4]octane-2-carboxamide derivatives for inducing chondrogenesis for treating joint damage” (NOVARTIS AG, priority 2018, dated 2025)
